ChEMBL document CHEMBL4879554, “Data for DCP probe GNE-2256” (2021)
Calls of active or inactive are those of the source.

Key:
[1] = IFNalpha human whole blood assay; format: tissue-based
[2] = target: Activin receptor type-2B (Homo sapiens) (UniProt Q13705); test: ACVR2B Kinase panel; settings: Compound concentration 1.0 uM
[3] = target: RAC-alpha serine/threonine-protein kinase (Homo sapiens) (UniProt P31749); test: AKT1 Kinase panel; settings: Compound concentration 1.0 uM
[4] = target: Calcium/calmodulin-dependent protein kinase kinase 2 (Homo sapiens) (UniProt Q96RR4); test: CAMKK2 Kinase panel; settings: Compound concentration 1.0 uM
[5] = target: CDK9/cyclin T1 (Homo sapiens) (UniProt O60563+P50750); test: CDK9/cyclinT1 Kinase panel; format: protein-complex assay; settings: Compound concentration 1.0 uM
[6] = target: Dual specificity protein kinase CLK1 (Homo sapiens) (UniProt P49759); test: CLK1 Kinase panel; settings: Compound concentration 1.0 uM
[7] = target: Calcium/calmodulin-dependent protein kinase type 1 (Homo sapiens) (UniProt Q14012); test: CaMKI Kinase panel; settings: Compound concentration 1.0 uM
[8] = target: Calcium/calmodulin-dependent protein kinase type II subunit alpha (Homo sapiens) (UniProt Q9UQM7); test: CamKII_alpha Kinase panel; settings: Compound concentration 1.0 uM
Calcium/calmodulin-dependent protein kinase type II subunit alpha (Homo sapiens), sequence (Q9UQM7 whole entry): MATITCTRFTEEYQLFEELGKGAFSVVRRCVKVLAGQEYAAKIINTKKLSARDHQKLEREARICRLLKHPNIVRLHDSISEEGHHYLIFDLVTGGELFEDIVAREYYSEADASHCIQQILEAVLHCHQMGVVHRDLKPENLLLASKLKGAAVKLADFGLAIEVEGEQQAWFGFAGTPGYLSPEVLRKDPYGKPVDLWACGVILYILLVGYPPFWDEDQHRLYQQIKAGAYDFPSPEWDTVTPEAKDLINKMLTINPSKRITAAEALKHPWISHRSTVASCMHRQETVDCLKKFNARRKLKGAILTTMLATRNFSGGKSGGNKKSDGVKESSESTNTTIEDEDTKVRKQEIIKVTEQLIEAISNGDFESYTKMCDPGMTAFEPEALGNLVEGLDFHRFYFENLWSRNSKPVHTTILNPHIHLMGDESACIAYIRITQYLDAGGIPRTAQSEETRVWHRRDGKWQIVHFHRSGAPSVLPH

[9] = target: Calcium/calmodulin-dependent protein kinase type IV (Homo sapiens) (UniProt Q16566); test: CamKIV Kinase panel; settings: Compound concentration 1.0 uM
[10] = target: Dual specificity tyrosine-phosphorylation-regulated kinase 4 (Homo sapiens) (UniProt Q9NR20); test: DYRK4 Kinase panel; settings: Compound concentration 1.0 uM
[11] = target: Ephrin type-B receptor 1 (Homo sapiens) (UniProt P54762); test: EphB1 Kinase panel; settings: Compound concentration 1.0 uM
[12] = target: Tyrosine-protein kinase Fgr (Homo sapiens) (UniProt P09769); test: Fgr Kinase panel; settings: Compound concentration 1.0 uM
Tyrosine-protein kinase Fgr (Homo sapiens), sequence (P09769 2-529 limits assumed): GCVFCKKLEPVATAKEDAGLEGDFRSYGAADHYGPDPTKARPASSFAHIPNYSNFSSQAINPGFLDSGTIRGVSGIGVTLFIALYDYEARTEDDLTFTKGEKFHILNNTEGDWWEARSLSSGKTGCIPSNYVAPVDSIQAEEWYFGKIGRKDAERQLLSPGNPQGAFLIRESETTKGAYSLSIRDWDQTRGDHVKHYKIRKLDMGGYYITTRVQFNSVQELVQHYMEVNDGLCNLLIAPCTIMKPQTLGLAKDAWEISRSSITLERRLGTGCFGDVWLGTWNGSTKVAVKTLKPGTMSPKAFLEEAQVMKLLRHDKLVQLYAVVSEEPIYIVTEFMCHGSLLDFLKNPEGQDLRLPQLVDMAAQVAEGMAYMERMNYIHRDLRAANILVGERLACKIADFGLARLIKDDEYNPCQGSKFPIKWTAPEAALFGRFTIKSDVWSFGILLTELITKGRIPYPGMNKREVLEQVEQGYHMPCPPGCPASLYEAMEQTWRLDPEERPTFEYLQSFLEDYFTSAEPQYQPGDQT

[13] = target: Vascular endothelial growth factor receptor 1 (Homo sapiens) (UniProt P17948); test: Flt1 Kinase panel; settings: Compound concentration 1.0 uM
[14] = target: Vascular endothelial growth factor receptor 3 (Homo sapiens) (UniProt P35916); test: Flt4 Kinase panel; settings: Compound concentration 1.0 uM
[15] = target: Tyrosine-protein kinase FRK (Homo sapiens) (UniProt P42685); test: Frk Kinase panel; settings: Compound concentration 1.0 uM
[16] = target: G protein-coupled receptor kinase 3 (Homo sapiens) (UniProt P35626); test: GRK3 Kinase panel; settings: Compound concentration 1.0 uM
[17] = target: Interleukin-1 receptor-associated kinase 1 (Homo sapiens) (UniProt P51617); test: IRAK1 Kinase panel; settings: Compound concentration 1.0 uM
[18] = target: Insulin receptor-related protein (Homo sapiens) (UniProt P14616); test: IRR Kinase panel; settings: Compound concentration 1.0 uM
[19] = target: Insulin receptor (Homo sapiens) (UniProt P06213); test: InsR Kinase panel; settings: Compound concentration 1.0 uM
[20] = target: T1, Tyrosine-protein kinase JAK2 (Homo sapiens, UniProt O60674); test: JAK2 Kinase panel
T1 sequence (O60674 whole entry): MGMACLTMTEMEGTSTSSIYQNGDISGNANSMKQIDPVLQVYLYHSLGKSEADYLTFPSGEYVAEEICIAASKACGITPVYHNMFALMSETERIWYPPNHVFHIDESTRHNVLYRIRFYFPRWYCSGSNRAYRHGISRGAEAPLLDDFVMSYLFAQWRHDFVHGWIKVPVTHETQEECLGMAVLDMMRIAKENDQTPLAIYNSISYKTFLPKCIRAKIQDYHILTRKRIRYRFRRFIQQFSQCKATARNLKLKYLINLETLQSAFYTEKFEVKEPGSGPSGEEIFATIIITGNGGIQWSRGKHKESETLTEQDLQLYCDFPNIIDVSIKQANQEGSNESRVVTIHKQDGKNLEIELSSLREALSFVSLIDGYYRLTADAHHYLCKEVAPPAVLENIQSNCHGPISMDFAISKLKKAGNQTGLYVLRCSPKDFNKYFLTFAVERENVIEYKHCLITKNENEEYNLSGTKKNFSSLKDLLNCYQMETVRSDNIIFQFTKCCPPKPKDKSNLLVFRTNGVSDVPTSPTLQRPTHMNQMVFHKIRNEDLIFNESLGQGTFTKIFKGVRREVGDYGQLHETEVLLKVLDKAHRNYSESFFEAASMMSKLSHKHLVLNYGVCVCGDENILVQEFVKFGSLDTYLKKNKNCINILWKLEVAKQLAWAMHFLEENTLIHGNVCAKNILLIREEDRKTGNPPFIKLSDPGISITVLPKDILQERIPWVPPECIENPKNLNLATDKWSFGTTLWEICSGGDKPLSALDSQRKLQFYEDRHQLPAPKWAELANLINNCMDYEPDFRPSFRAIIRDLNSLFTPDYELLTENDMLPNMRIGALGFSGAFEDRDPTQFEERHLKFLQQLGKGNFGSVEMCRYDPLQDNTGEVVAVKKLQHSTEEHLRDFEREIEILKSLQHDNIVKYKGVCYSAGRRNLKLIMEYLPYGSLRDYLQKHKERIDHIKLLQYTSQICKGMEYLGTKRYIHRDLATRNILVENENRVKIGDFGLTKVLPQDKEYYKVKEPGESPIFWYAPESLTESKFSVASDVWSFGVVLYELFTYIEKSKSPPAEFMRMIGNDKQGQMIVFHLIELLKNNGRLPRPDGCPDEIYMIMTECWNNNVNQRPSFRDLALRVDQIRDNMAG

[21] = target: Mast/stem cell growth factor receptor Kit (Homo sapiens) (UniProt P10721); test: Kit Kinase panel; settings: Compound concentration 1.0 uM
Mast/stem cell growth factor receptor Kit (Homo sapiens), sequence (P10721 whole entry): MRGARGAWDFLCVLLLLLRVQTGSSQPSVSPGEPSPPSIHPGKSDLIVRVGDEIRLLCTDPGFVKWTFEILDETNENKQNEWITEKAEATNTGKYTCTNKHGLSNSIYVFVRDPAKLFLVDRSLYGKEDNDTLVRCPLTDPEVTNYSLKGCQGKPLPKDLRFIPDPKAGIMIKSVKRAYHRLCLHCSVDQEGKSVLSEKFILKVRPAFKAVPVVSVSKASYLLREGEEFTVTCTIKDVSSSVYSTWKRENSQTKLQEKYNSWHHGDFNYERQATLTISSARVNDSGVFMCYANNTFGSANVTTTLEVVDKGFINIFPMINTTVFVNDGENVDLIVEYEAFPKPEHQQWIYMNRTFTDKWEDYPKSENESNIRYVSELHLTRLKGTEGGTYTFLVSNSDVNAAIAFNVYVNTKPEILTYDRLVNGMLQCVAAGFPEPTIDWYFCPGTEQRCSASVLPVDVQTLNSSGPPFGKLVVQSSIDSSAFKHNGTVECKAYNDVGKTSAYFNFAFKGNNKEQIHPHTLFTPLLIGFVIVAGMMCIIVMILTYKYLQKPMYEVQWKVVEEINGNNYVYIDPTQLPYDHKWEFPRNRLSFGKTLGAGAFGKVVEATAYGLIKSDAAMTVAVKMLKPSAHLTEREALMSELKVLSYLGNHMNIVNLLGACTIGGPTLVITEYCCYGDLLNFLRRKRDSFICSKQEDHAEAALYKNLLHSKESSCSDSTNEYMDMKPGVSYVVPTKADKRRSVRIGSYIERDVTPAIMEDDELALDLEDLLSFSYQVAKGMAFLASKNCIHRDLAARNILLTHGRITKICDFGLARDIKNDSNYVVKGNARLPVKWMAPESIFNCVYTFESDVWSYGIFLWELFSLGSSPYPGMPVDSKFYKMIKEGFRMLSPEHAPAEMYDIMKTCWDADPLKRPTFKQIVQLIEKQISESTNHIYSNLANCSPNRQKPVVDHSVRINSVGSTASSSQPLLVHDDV

[22] = target: Leucine-rich repeat serine/threonine-protein kinase 2 (Homo sapiens) (UniProt Q5S007); test: LRRK2 Kinase panel; settings: Compound concentration 1.0 uM
[23] = target: Mitogen-activated protein kinase kinase kinase 9 (Homo sapiens) (UniProt P80192); test: MLK1 Kinase panel; settings: Compound concentration 1.0 uM
[24] = target: Serine/threonine-protein kinase MRCK alpha (Homo sapiens) (UniProt Q5VT25); test: MRCK_alpha Kinase panel; settings: Compound concentration 1.0 uM
[25] = target: Serine/threonine-protein kinase PAK 4 (Homo sapiens) (UniProt O96013); test: PAK4 Kinase panel; settings: Compound concentration 1.0 uM
[26] = target: PAS domain-containing serine/threonine-protein kinase (Homo sapiens) (UniProt Q96RG2); test: PASK Kinase panel; settings: Compound concentration 1.0 uM
[27] = target: Phosphatidylinositol 4,5-bisphosphate 3-kinase catalytic subunit alpha isoform (Homo sapiens) (UniProt P42336); test: PI3KA Kinase panel; settings: Compound concentration 1.0 uM
Homo sapiens = species on record: Homo sapiens; test: PKA Kinase panel; settings: Compound concentration 1.0 uM
[28] = target: Protein kinase C beta type (Homo sapiens) (UniProt P05771); test: PKC_beta1 Kinase panel; settings: Compound concentration 1.0 uM
[29] = target: Protein kinase C delta type (Homo sapiens) (UniProt Q05655); test: PKC_delta Kinase panel; settings: Compound concentration 1.0 uM
[30] = target: Protein kinase C epsilon type (Homo sapiens) (UniProt Q02156); test: PKC_epsilon Kinase panel; settings: Compound concentration 1.0 uM
[31] = target: Serine/threonine-protein kinase PLK1 (Homo sapiens) (UniProt P53350); test: PLK1 Kinase panel; settings: Compound concentration 1.0 uM
[32] = target: Serine/threonine-protein kinase PLK3 (Homo sapiens) (UniProt Q9H4B4); test: PLK3 Kinase panel; settings: Compound concentration 1.0 uM
[33] = target: Serine/threonine-protein kinase N1 (Homo sapiens) (UniProt Q16512); test: PRK1 Kinase panel; settings: Compound concentration 1.0 uM
[34] = target: Ribosomal protein S6 kinase alpha-3 (Homo sapiens) (UniProt P51812); test: RSK2 Kinase panel; settings: Compound concentration 1.0 uM
[35] = target: Proto-oncogene tyrosine-protein kinase receptor Ret (Homo sapiens) (UniProt P07949); test: Ret Kinase panel; settings: Compound concentration 1.0 uM
[36] = target: Proto-oncogene tyrosine-protein kinase ROS (Homo sapiens) (UniProt P08922); test: Ros Kinase panel; settings: Compound concentration 1.0 uM
[37] = target: Serine/threonine-protein kinase SIK2 (Homo sapiens) (UniProt Q9H0K1); test: SIK2 Kinase panel; settings: Compound concentration 1.0 uM
[38] = target: Serine/threonine-protein kinase TBK1 (Homo sapiens) (UniProt Q9UHD2); test: TBK1 Kinase panel; settings: Compound concentration 1.0 uM
[39] = target: Tyrosine-protein kinase Tec (Homo sapiens) (UniProt P42680); test: TEC Kinase panel; settings: Compound concentration 1.0 uM
[40] = target: Dual specificity protein kinase TTK (Homo sapiens) (UniProt P33981); test: TTK Kinase panel; settings: Compound concentration 1.0 uM
Dual specificity protein kinase TTK (Homo sapiens), sequence (P33981 whole entry): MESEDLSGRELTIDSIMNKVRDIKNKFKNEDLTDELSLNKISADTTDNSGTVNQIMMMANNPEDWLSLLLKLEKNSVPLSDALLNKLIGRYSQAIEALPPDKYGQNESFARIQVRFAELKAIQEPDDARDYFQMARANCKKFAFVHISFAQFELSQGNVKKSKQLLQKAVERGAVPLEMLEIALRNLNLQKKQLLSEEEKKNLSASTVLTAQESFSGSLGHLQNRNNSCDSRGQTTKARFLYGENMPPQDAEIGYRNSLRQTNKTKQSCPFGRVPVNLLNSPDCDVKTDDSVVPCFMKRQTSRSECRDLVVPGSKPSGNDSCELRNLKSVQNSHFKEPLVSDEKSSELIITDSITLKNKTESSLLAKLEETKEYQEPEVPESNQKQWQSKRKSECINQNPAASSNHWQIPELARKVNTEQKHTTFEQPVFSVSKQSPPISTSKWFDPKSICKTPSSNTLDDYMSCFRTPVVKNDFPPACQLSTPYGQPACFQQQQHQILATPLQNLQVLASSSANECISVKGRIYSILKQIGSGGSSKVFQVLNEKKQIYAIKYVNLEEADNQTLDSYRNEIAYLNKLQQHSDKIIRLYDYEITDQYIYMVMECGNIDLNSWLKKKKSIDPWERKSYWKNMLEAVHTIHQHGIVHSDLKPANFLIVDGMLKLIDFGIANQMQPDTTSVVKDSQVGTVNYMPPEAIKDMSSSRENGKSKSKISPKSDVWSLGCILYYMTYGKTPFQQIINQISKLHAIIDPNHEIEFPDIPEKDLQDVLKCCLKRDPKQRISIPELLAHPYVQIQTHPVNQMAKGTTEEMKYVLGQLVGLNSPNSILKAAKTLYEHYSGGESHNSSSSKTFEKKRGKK

[41] = target: Tyrosine-protein kinase TXK (Homo sapiens) (UniProt P42681); test: TXK Kinase panel; settings: Compound concentration 1.0 uM
[42] = target: BDNF/NT-3 growth factors receptor (Homo sapiens) (UniProt Q16620); test: TrkB Kinase panel; settings: Compound concentration 1.0 uM
[43] = target: Serine/threonine-protein kinase 25 (Homo sapiens) (UniProt O00506); test: YSK1 Kinase panel; settings: Compound concentration 1.0 uM
[44] = target: Death-associated protein kinase 3 (Homo sapiens) (UniProt O43293); test: ZIPK Kinase panel; settings: Compound concentration 1.0 uM
[45] = target: Mitogen-activated protein kinase 14 (Homo sapiens) (UniProt Q16539); test: p38_alpha(direct) Kinase panel; settings: Compound concentration 1.0 uM
[46] = target: Mitogen-activated protein kinase 13 (Homo sapiens) (UniProt O15264); test: p38_delta Kinase panel; settings: Compound concentration 1.0 uM
[47] = target: T1, Tyrosine-protein kinase JAK2; test: NanoBRET assay (JAK2, SGC Frankfurt)
[48] = target: 5-hydroxytryptamine receptor 1A (Homo sapiens) (UniProt P08908); settings: Compound concentration 10.0 uM
[49] = target: 5-hydroxytryptamine receptor 2B (Homo sapiens, UniProt P41595); settings: Compound concentration 10.0 uM
[50] = target: D(4) dopamine receptor (Homo sapiens) (UniProt P21917); settings: Compound concentration 10.0 uM
[51] = target: D(1B) dopamine receptor (Homo sapiens) (UniProt P21918); settings: Compound concentration 10.0 uM
[52] = target: Sodium-dependent noradrenaline transporter (Homo sapiens) (UniProt P23975); settings: Compound concentration 10.0 uM
[53] = target: Histamine H1 receptor (Homo sapiens) (UniProt P35367); settings: Compound concentration 10.0 uM
[54] = target: Muscarinic acetylcholine receptor M2 (Homo sapiens) (UniProt P08172); settings: Compound concentration 10.0 uM

Activin receptor type-2B (Homo sapiens), sequence (Q13705 whole entry): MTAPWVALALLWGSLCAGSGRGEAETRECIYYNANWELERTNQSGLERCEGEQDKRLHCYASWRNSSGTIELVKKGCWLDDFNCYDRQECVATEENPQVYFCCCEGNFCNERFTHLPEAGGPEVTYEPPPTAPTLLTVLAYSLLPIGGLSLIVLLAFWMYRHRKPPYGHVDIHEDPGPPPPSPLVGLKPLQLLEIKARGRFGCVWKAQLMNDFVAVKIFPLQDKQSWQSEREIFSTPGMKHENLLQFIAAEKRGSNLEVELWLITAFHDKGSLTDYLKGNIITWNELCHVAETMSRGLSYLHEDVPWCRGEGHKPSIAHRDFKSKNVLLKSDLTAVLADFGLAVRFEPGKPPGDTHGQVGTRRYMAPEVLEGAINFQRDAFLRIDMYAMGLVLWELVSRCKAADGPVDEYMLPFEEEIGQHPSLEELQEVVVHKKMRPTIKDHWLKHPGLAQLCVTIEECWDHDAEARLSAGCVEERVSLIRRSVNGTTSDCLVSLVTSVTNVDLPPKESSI
RAC-alpha serine/threonine-protein kinase (Homo sapiens), sequence (P31749 whole entry): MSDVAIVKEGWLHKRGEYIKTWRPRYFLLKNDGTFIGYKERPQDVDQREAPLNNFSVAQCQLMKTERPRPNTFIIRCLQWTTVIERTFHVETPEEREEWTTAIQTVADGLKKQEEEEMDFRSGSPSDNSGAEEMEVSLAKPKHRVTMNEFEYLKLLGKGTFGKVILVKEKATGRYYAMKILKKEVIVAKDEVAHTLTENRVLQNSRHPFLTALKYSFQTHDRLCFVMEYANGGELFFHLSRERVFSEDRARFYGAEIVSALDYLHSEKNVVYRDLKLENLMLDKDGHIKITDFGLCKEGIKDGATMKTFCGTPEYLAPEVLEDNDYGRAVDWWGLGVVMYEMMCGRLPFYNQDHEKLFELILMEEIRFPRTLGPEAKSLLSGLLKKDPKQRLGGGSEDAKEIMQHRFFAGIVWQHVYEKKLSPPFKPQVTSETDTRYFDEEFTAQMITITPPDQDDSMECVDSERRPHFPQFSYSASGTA

CC(C)(O)[C@H](F)CN1Cc2cc(NC(=O)c3cnn4cccnc34)c(N3CCOCC3)cc2C1=O
inactive: inhibition [2] 12.5% | inhibition [3] 0.5% | inhibition [4] 8.5% | inhibition [5] 2.5% | inhibition [6] 7.5% | inhibition [7] -5.5% | inhibition [8] 2.5% | inhibition [9] -6% | inhibition [10] -5% | inhibition [11] 23% | inhibition [12] 53% | inhibition [13] -1% | inhibition [14] 13% | inhibition [15] 5.5% | inhibition [16] -1% | inhibition [17] 64.3% | inhibition [18] 18% | inhibition [19] 34.5% | inhibition ([20]; Compound concentration 1.0 uM) 80.5% | inhibition [21] 3% | inhibition [22] 91.4% | inhibition [23] 14% | inhibition [24] 1.5% | inhibition [25] 5% | inhibition [26] -6.5% | inhibition [27] 21.5% | inhibition (Homo sapiens) 5% | inhibition [28] 4% | inhibition [29] 12.5% | inhibition [30] 13% | inhibition [31] -2% | inhibition [32] -3% | inhibition [33] 0.5% | inhibition [34] 15% | inhibition [35] 31.5% | inhibition [36] 38.5% | inhibition [37] 12% | inhibition [38] 5.5% | inhibition [39] 0.5% | inhibition [40] 13% | inhibition [41] 34% | inhibition [42] 86% | inhibition [43] 5% | inhibition [44] 3.5% | inhibition [45] 4% | inhibition [46] 5.5% | inhibition [48] -2.64% | inhibition [50] -9.22% | inhibition [51] -6.56% | inhibition [52] 2.12% | inhibition [53] 17.7% | inhibition [54] -9.33%
> 50000 nM (not active): EC50 [47]
486 nM: IC50 [20]
active: IC50 [1] 290 nM | inhibition [49] 84.1%
